Tests used:
[1] = system: P. aeruginosa MB9798 (efflux+, IMP-1 plasmid); settings: for MB9798 MITC95 P. aeruginosa uM Efflux WT: efflux + (MB9798) strain, imipenem at 2 μg/mL, in the presence of a class A, C, D serine β-lactamase inhibitor closely related to relebactam; for Efflux ratio: fold difference between efflux+ (MB9798) and efflux− (MB9799) strains
In short: (§1)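 PAO1-derived isogenic pair (oprD+, inducible AmpC), efflux+ MB5919 or efflux− MB5890 parent, carrying an electroporated IMP-1 plasmid from a clinical isolate. Microbroth MIC with fixed imipenem and/or ceftazidime (usually CLSI breakpoint) plus fixed class A/C inhibitor; MBL inhibitor serially titrated, concentration restoring susceptibility recorded.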

[2] = target: VIM-2 (Escherichia coli, UniProt Q5U7L7); experiment: biochemical; settings: CCF2-FA fluorescence assay; read-out: VIM2 IC50
[3] = target: VIM-1 (Pseudomonas aeruginosa (strain ATCC 15692 / DSM 22644 / CIP 104116 / JCM 14847 / LMG 12228 / 1C / PRS 101 / PAO1), UniProt A0A0F7KYQ8); experiment: biochemical; settings: CCF2-FA fluorescence assay, 2 hours at 25° C.; read-out: VIM1 IC50
In short: (§2)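 Enzyme (NDM-1 1 pM, IMP-1 2 pM, VIM-1 30 pM final) and 1.25 μM CCF2-FA incubated with inhibitor (20 to 0.00063 μM) for 2 h at 25° C in 100 mM KH2PO4 pH 7, 0.005% Tween-20, 10 μM ZnSO4. Fluorescence read at ex 405/em 460 nm; IC50 by 4-parameter fit.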

[4] = target: IMP-1 (Serratia marcescens, UniProt P52699); experiment: biochemical; settings: CCF2-FA fluorescence assay, 2 hours at 25° C.; read-out: IMP1 IC50
Sequence of IMP-1 (P52699 whole entry, looked up, species assumed): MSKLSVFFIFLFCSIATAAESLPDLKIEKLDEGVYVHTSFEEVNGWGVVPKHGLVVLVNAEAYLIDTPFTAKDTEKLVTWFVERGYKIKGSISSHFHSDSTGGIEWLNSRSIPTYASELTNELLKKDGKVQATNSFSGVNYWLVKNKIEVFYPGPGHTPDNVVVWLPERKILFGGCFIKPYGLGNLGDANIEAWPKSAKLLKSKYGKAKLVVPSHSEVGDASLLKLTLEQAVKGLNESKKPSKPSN
In short: as §2

[5] = system: P. aeruginosa MB9799 (efflux-, IMP-1 plasmid); type: cell-based, Pseudomonas aeruginosa; settings: efflux − (MB9799) strain; imipenem at 2 μg/mL; in the presence of a class A, C, D serine β-lactamase inhibitor closely related to relebactam
In short: as §1

[6] = target: NDM-1 (Klebsiella pneumoniae, UniProt C7C422); experiment: biochemical; type: biochemical; settings: CCF2-FA fluorescence assay, 2 hours at 25° C.
Sequence of NDM-1 (C7C422 whole entry, looked up, species assumed): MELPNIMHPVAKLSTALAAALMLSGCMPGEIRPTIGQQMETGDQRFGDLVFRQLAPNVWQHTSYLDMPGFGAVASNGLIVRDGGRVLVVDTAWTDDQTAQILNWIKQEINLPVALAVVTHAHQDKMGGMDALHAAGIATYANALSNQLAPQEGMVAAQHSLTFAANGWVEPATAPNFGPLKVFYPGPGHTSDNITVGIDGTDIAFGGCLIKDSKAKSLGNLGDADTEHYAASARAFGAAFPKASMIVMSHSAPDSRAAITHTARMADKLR
In short: as §2

[7] = system: Serratia marcescens expressing IMP-1 (CL5741); type: cell-based; settings: with imipenem 1 μg/ml; 95% inhibition of bacterial growth
In short: (§3)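 MITC95 denotes the minimal test-compound level that, combined with 1 μg/ml imipenem, blocks 95% of bacterial growth, measured by absorbance. Overnight-grown clinical isolates were diluted 1:100 in CAMHB and incubated with both agents at 35° C for 22–24 h.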

[8] = system: Escherichia coli expressing NDM-1 (CLB30016); type: cell-based; settings: with imipenem 1 μg/ml; 95% inhibition of bacterial growth
In short: as §3

[9] = system: Klebsiella pneumoniae expressing VIM-1 (IHMA599644); type: cell-based; settings: with imipenem 1 μg/ml; 95% inhibition of bacterial growth
In short: as §3

## NS(=O)(=O)c1c(S(=O)(=O)N[C@@H]2CCNC2)ccc(NCCN2CCNCC2)c1-c1nnn[nH]1 [Example 75, 4-[(2-piperazin-1-ylethyl)amino]-N1-[(3R)-pyrrolidin-3-yl]-3-(1H-tetrazol-5-yl)benzene-1,2-disulfonamide]
[1]
  MB9798 MITC95 P. aeruginosa uM Efflux WT: 25.00 µM
  Efflux ratio: 8.00
[2]
  IC50: 200 nM
[3]
  IC50: 6.75 nM
[4]
  IC50: 178 nM
[5]
  MB9799 MITC95 P. aeruginosa uM Efflux Mutant: 3.13 µM
[6]
  IC50: 162 nM
[7]
  CL5741 S. marcescens MITC95 IMP: 12.50 µM
[8]
  CLB30016 E. coli MITC95 NDM: 6.25 µM
[9]
  IHMA599644 K. pneumoniae MITC95 VIM: 3.13 µM

## NCCN1CCN(c2ccc(S(=O)(=O)N[C@@H]3CCNC3)c(S(N)(=O)=O)c2-c2nnn[nH]2)CC1 [Example 76, 4-[4-(2-aminoethyl)piperazin-1-yl]-N1-[(3R)-pyrrolidin-3-yl]-3-(1H-tetrazol-5-yl)benzene-1,2-disulfonamide]
[1]
  MB9798 MITC95 P. aeruginosa uM Efflux WT: 1.56 µM
  Efflux ratio: 1.00
[2]
  IC50: 18.1 nM
[3]
  IC50: 1.6 nM
[4]
  IC50: 10.7 nM
[5]
  MB9799 MITC95 P. aeruginosa uM Efflux Mutant: 1.56 µM
[6]
  IC50: 4.35 nM
[7]
  CL5741 S. marcescens MITC95 IMP: 3.13 µM
[8]
  CLB30016 E. coli MITC95 NDM: 1.56 µM
[9]
  IHMA599644 K. pneumoniae MITC95 VIM: 3.13 µM

## NCC1CCN(c2ccc(S(=O)(=O)N[C@@H]3CCNC3)c(S(N)(=O)=O)c2-c2nnn[nH]2)CC1 [Example 77, 4-[4-(aminomethyl)piperidin-1-yl]-N1-[(3R)-pyrrolidin-3-yl]-3-(1H-tetrazol-5-yl)benzene-1,2-disulfonamide]
[1]
  MB9798 MITC95 P. aeruginosa uM Efflux WT: 0.78 µM
  Efflux ratio: 2.00
[2]
  IC50: 1.8 nM
[3]
  IC50: 0.11 nM
[4]
  IC50: 1.83 nM
[5]
  MB9799 MITC95 P. aeruginosa uM Efflux Mutant: 0.39 µM
[6]
  IC50: 0.53 nM
[7]
  CL5741 S. marcescens MITC95 IMP: 0.78 µM
[8]
  CLB30016 E. coli MITC95 NDM: 0.78 µM
[9]
  IHMA599644 K. pneumoniae MITC95 VIM: 0.78 µM

## NC[C@@H]1CCCN(c2ccc(S(=O)(=O)N[C@@H]3CCNC3)c(S(N)(=O)=O)c2-c2nnn[nH]2)C1 [Example 78, 4-[(3S)-3-(aminomethyl)piperidin-1-yl]-N1-[(3R)-pyrrolidin-3-yl]-3-(1H-tetrazol-5-yl)benzene-1,2-disulfonamide]
[1]
  MB9798 MITC95 P. aeruginosa uM Efflux WT: 6.25 µM
  Efflux ratio: 8.00
[2]
  IC50: 3.01 nM
[3]
  IC50: 0.66 nM
[4]
  IC50: 35.4 nM
[5]
  MB9799 MITC95 P. aeruginosa uM Efflux Mutant: 0.78 µM
[6]
  IC50: 5.4 nM
[7]
  CL5741 S. marcescens MITC95 IMP: 1.56 µM
[8]
  CLB30016 E. coli MITC95 NDM: 0.39 µM
[9]
  IHMA599644 K. pneumoniae MITC95 VIM: 1.56 µM

## NS(=O)(=O)c1c(S(=O)(=O)N[C@@H]2CCNC2)ccc(N2CCNCC2)c1-c1nnn[nH]1 [Example 79, 4-piperazin-1-yl-N1-[(3R)-pyrrolidin-3-yl]-3-(1H-tetrazol-5-yl)benzene-1,2-disulfonamide]
[1]
  MB9798 MITC95 P. aeruginosa uM Efflux WT: 3.13 µM
  Efflux ratio: 2.00
[2]
  IC50: 36.4 nM
[3]
  IC50: 8.6 nM
[4]
  IC50: 26.6 nM
[5]
  MB9799 MITC95 P. aeruginosa uM Efflux Mutant: 1.56 µM
[6]
  IC50: 9.35 nM
[7]
  CL5741 S. marcescens MITC95 IMP: 0.78 µM
[8]
  CLB30016 E. coli MITC95 NDM: 0.39 µM
[9]
  IHMA599644 K. pneumoniae MITC95 VIM: 3.13 µM

## NS(=O)(=O)c1c(S(=O)(=O)N[C@@H]2CCNC2)ccc(N2CCC(S(N)(=O)=O)CC2)c1-c1nnn[nH]1 [Example 80, N1-[(3R)-pyrrolidin-3-yl]-4-(4-sulfamoylpiperidin-1-yl)-3-(1H-tetrazol-5-yl)benzene-1,2-disulfonamide]
[1]
  MB9798 MITC95 P. aeruginosa uM Efflux WT: 1.56 µM
  Efflux ratio: 1.00
[2]
  IC50: 0.66 nM
[3]
  IC50: 0.13 nM
[4]
  IC50: 0.43 nM
[5]
  MB9799 MITC95 P. aeruginosa uM Efflux Mutant: 1.56 µM
[6]
  IC50: 0.3 nM
[7]
  CL5741 S. marcescens MITC95 IMP: 0.78 µM
[8]
  CLB30016 E. coli MITC95 NDM: 1.56 µM
[9]
  IHMA599644 K. pneumoniae MITC95 VIM: 3.13 µM

## NS(=O)(=O)c1c(S(=O)(=O)N[C@@H]2CCNC2)ccc(N2CCC(CCO)C2)c1-c1nnn[nH]1 (stereo partly drawn) [Example 81, 4-[3-(2-hydroxyethyl)pyrrolidin-1-yl]-N1-[(3R)-pyrrolidin-3-yl]-3-(1H-tetrazol-5-yl)benzene-1,2-disulfonamide]
[1]
  MB9798 MITC95 P. aeruginosa uM Efflux WT: 6.25 µM
  Efflux ratio: 2.00
[2]
  IC50: 1 nM
[3]
  IC50: 0.51 nM
[4]
  IC50: 0.62 nM
[5]
  MB9799 MITC95 P. aeruginosa uM Efflux Mutant: 3.13 µM
[6]
  IC50: 0.64 nM
[7]
  CL5741 S. marcescens MITC95 IMP: 3.13 µM
[8]
  CLB30016 E. coli MITC95 NDM: 3.13 µM
[9]
  IHMA599644 K. pneumoniae MITC95 VIM: 6.25 µM

## NC[C@H]1CCCN(c2ccc(S(=O)(=O)N[C@@H]3CCNC3)c(S(N)(=O)=O)c2-c2nnn[nH]2)C1 [Example 82, 4-[(3R)-3-(aminomethyl)piperidin-1-yl]-N1-[(3R)-pyrrolidin-3-yl]-3-(1H-tetrazol-5-yl)benzene-1,2-disulfonamide]
[1]
  MB9798 MITC95 P. aeruginosa uM Efflux WT: 6.25 µM
  Efflux ratio: 2.00
[2]
  IC50: 9.33 nM
[3]
  IC50: 0.9 nM
[4]
  IC50: 45.6 nM
[5]
  MB9799 MITC95 P. aeruginosa uM Efflux Mutant: 3.13 µM
[6]
  IC50: 42.9 nM
[7]
  CL5741 S. marcescens MITC95 IMP: 0.78 µM
[8]
  CLB30016 E. coli MITC95 NDM: 0.78 µM
[9]
  IHMA599644 K. pneumoniae MITC95 VIM: 0.78 µM

## CC(=O)N[C@H]1CCN(c2ccc(S(=O)(=O)N[C@@H]3CCNC3)c(S(N)(=O)=O)c2-c2nnn[nH]2)C1 [Example 83, N-[(3S)-1-{4-[(3R)-pyrrolidin-3-ylsulfamoyl]-3-sulfamoyl-2-(1H-tetrazol-5-yl)phenyl}pyrrolidin-3-yl]acetamide]
[1]
  MB9798 MITC95 P. aeruginosa uM Efflux WT: 12.50 µM
  Efflux ratio: 4.00
[2]
  IC50: 2.82 nM
[3]
  IC50: 2.11 nM
[4]
  IC50: 15.9 nM
[5]
  MB9799 MITC95 P. aeruginosa uM Efflux Mutant: 3.13 µM
[6]
  IC50: 4.98 nM
[7]
  CL5741 S. marcescens MITC95 IMP: 3.13 µM
[8]
  CLB30016 E. coli MITC95 NDM: 6.25 µM
[9]
  IHMA599644 K. pneumoniae MITC95 VIM: 12.50 µM

## NC1(CO)CCN(c2ccc(S(=O)(=O)N[C@@H]3CCNC3)c(S(N)(=O)=O)c2-c2nnn[nH]2)C1 (stereo partly drawn) [Example 84, 4-[3-amino-3-(hydroxymethyl)pyrrolidin-1-yl]-N1-[(3R)-pyrrolidin-3-yl]-3-(1H-tetrazol-5-yl)benzene-1,2-disulfonamide]
[1]
  MB9798 MITC95 P. aeruginosa uM Efflux WT: 6.25 µM
  Efflux ratio: 4.00
[2]
  IC50: 46.9 nM
[3]
  IC50: 7.27 nM
[4]
  IC50: 33 nM
[5]
  MB9799 MITC95 P. aeruginosa uM Efflux Mutant: 1.56 µM
[6]
  IC50: 19.7 nM
[7]
  CL5741 S. marcescens MITC95 IMP: 1.56 µM
[8]
  CLB30016 E. coli MITC95 NDM: 0.78 µM
[9]
  IHMA599644 K. pneumoniae MITC95 VIM: 1.56 µM

## NCC1(O)CCN(c2ccc(S(=O)(=O)N[C@@H]3CCNC3)c(S(N)(=O)=O)c2-c2nnn[nH]2)CC1 [Example 85, 4-[4-(aminomethyl)-4-hydroxypiperidin-1-yl]-N1-[(3R)-pyrrolidin-3-yl]-3-(1H-tetrazol-5-yl)benzene-1,2-disulfonamide]
[1]
  MB9798 MITC95 P. aeruginosa uM Efflux WT: 1.56 µM
  Efflux ratio: 2.00
[2]
  IC50: 23.7 nM
[3]
  IC50: 2.13 nM
[4]
  IC50: 9.94 nM
[5]
  MB9799 MITC95 P. aeruginosa uM Efflux Mutant: 0.78 µM
[6]
  IC50: 3.15 nM
[7]
  CL5741 S. marcescens MITC95 IMP: 1.56 µM
[8]
  CLB30016 E. coli MITC95 NDM: 0.78 µM
[9]
  IHMA599644 K. pneumoniae MITC95 VIM: 1.56 µM

## N[C@@H]1CCCN(c2ccc(S(=O)(=O)N[C@@H]3CCNC3)c(S(N)(=O)=O)c2-c2nnn[nH]2)C1 [Example 86, 4-[(3R)-3-aminopiperidin-1-yl]-N1-[(3R)-pyrrolidin-3-yl]-3-(1H-tetrazol-5-yl)benzene-1,2-disulfonamide]
[1]
  MB9798 MITC95 P. aeruginosa uM Efflux WT: 12.50 µM
  Efflux ratio: 8.00
[2]
  IC50: 14 nM
[3]
  IC50: 3.83 nM
[4]
  IC50: 58.8 nM
[5]
  MB9799 MITC95 P. aeruginosa uM Efflux Mutant: 1.56 µM
[6]
  IC50: 1.37 nM
[7]
  CL5741 S. marcescens MITC95 IMP: 1.56 µM
[8]
  CLB30016 E. coli MITC95 NDM: 0.39 µM
[9]
  IHMA599644 K. pneumoniae MITC95 VIM: 1.56 µM

## NS(=O)(=O)c1c(S(=O)(=O)N[C@@H]2CCNC2)ccc(N2CCC(CCF)CC2)c1-c1nnn[nH]1 [Example 87, 4-[4-(2-fluoroethyl)piperidin-1-yl]-N1-[(3R)-pyrrolidin-3-yl]-3-(1H-tetrazol-5-yl)benzene-1,2-disulfonamide]
[1]
  MB9798 MITC95 P. aeruginosa uM Efflux WT: 12.50 µM
  Efflux ratio: 8.00
[2]
  IC50: 0.49 nM
[3]
  IC50: 0.12 nM
[4]
  IC50: 0.24 nM
[5]
  MB9799 MITC95 P. aeruginosa uM Efflux Mutant: 1.56 µM
[6]
  IC50: 0.16 nM
[7]
  CL5741 S. marcescens MITC95 IMP: 3.13 µM
[8]
  CLB30016 E. coli MITC95 NDM: 1.56 µM
[9]
  IHMA599644 K. pneumoniae MITC95 VIM: 3.13 µM

Reference: patent US11207312B2, “Metallo-beta-lactamase inhibitors and methods of use thereof” (priority 2017, dated 2021)
